# Assay results published in US20230085307A1, “PYRIDAZINONE COMPOUND AND HERBICIDE” (NISSAN CHEMICAL CORPORATION, priority 2019, published 2023).
# What was measured:
# wild oat [1] = experiment: Test Example 4: herbicidal effect by soil treatment (Table 19, symbol I); assay type: in vivo, wild oat (Avena fatua)
# Method in brief: (§1)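 Pre-emergence style soil spray: seeds under ~1.5 cm sterilized diluvial soil received a uniform coat of emulsion diluted to the predetermined herbicide amount. Greenhouse 25–30° C; readout at week three on previously defined criteria.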
# green foxtail [2] = experiment: Test Example 5: herbicidal effect by foliage application, plastic box (Table 20, symbol G); assay type: in vivo, green foxtail (Setaria viridis); details: foliage application, 320 g/ha, evaluated three weeks after application
# Method in brief: (§2)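 Plants were sown into sterilized diluvial soil under about 1.5 cm cover and kept in a greenhouse at 25° C. to 30° C. Fourteen days on, foliage received an even spray of the diluted emulsion. Herbicidal or crop effect was judged three weeks afterwards.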
# rice flat sedge = experiment: Test Example 3: herbicidal effect by foliage application, Wagner pot (Table 18, symbol E); assay type: in vivo, rice flat sedge (Cyperus iria)
# Method in brief: (§3)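 Plants were sown in alluvial soil held under 0.1–0.5 cm standing water and grown 14 days in a greenhouse at 25–30 °C. An emulsifiable formulation, water-diluted to the set dose, was then sprayed onto the foliage, and effects were scored three weeks later using previously defined criteria.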
# velvetleaf [3] = experiment: Test Example 5: herbicidal effect by foliage application, plastic box (Table 20, symbol M); assay type: in vivo, velvetleaf (Abutilon theophrasti); details: foliage application, 320 g/ha, evaluated three weeks after application
# Method in brief: as §2
# windgrass [4] = experiment: Test Example 5: herbicidal effect by foliage application, plastic box (Table 20, symbol L); assay type: in vivo, windgrass (Apera spica-venti); details: foliage application, 320 g/ha, evaluated three weeks after application
# Method in brief: as §2
# Italian ryegrass [5] = experiment: Test Example 5: herbicidal effect by foliage application, plastic box (Table 20, symbol K); assay type: in vivo, Italian ryegrass (Lolium multiflorum); details: foliage application, 320 g/ha, evaluated three weeks after application
# Method in brief: as §2
# Chinese sprangletop = experiment: Test Example 3: herbicidal effect by foliage application, Wagner pot (Table 18, symbol D); assay type: in vivo, chinese sprangletop (Leptochloa chinensis)
# Method in brief: as §3
# Japanese bulrush = experiment: Test Example 2: herbicidal activity, application during weed generation under submerged conditions (Table 17, symbol B); assay type: in vivo, Japanese bulrush (Schoenoplectus juncoides); details: AAH 320 g/ha; application during weed generation, submerged conditions
# Method in brief: (§4)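 Herbicide emulsion, diluted with water to the chosen amount, is applied onto 4 cm floodwater over alluvial soil where the weeds were co-sown and raised at 25–30° C. Application timing: 1–2 leaves. Assessment: three weeks afterwards.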
# persian speedwell [6] = experiment: Test Example 5: herbicidal effect by foliage application, plastic box (Table 20, symbol R); assay type: in vivo, Persian speedwell (Veronica persica); details: foliage application, 320 g/ha, evaluated three weeks after application
# Method in brief: as §2
# blackgrass [7] = experiment: Test Example 4: herbicidal effect by soil treatment (Table 19, symbol J); assay type: in vivo, blackgrass (Alopecurus myosuroides)
# Method in brief: as §1
# lambsquarters [8] = experiment: Test Example 5: herbicidal effect by foliage application, plastic box (Table 20, symbol O); assay type: in vivo, lambsquarters (Chenopodium album); details: foliage application, 320 g/ha, evaluated three weeks after application
# Method in brief: as §2
# lambsquarters [9] = experiment: Test Example 4: herbicidal effect by soil treatment (Table 19, symbol O); assay type: in vivo, lambsquarters (Chenopodium album)
# Method in brief: as §1
# green foxtail [10] = experiment: Test Example 4: herbicidal effect by soil treatment (Table 19, symbol G); assay type: in vivo, green foxtail (Setaria viridis)
# Method in brief: as §1
# barnyard grass [11] = experiment: Test Example 5: herbicidal effect by foliage application, plastic box (Table 20, symbol H); assay type: in vivo, barnyard grass (Echinochloa crus-galli); details: foliage application, 320 g/ha, evaluated three weeks after application
# Method in brief: as §2
# redroot pigweed [12] = experiment: Test Example 4: herbicidal effect by soil treatment (Table 19, symbol N); assay type: in vivo, redroot pigweed (Amaranthus retroflexus)
# Method in brief: as §1
# persian speedwell [13] = experiment: Test Example 4: herbicidal effect by soil treatment (Table 19, symbol R); assay type: in vivo, Persian speedwell (Veronica persica)
# Method in brief: as §1
# chickweed [14] = experiment: Test Example 5: herbicidal effect by foliage application, plastic box (Table 20, symbol P); assay type: in vivo, common chickweed (Stellaria media); details: foliage application, 320 g/ha, evaluated three weeks after application
# Method in brief: as §2
# oval-leafed pondweed = experiment: Test Example 2: herbicidal activity, application during weed generation under submerged conditions (Table 17, symbol C); assay type: in vivo, oval-leafed pondweed (Monochoria vaginalis); details: AAH 320 g/ha; application during weed generation, submerged conditions
# Method in brief: as §4
# barnyard grass [15] = experiment: Test Example 3: herbicidal effect by foliage application, Wagner pot (Table 18, symbol H); assay type: in vivo, barnyard grass (Echinochloa crus-galli)
# Method in brief: as §3
# Italian ryegrass [16] = experiment: Test Example 4: herbicidal effect by soil treatment (Table 19, symbol K); assay type: in vivo, Italian ryegrass (Lolium multiflorum)
# Method in brief: as §1
# windgrass [17] = experiment: Test Example 4: herbicidal effect by soil treatment (Table 19, symbol L); assay type: in vivo, windgrass (Apera spica-venti)
# Method in brief: as §1
# barnyard grass [18] = experiment: Test Example 4: herbicidal effect by soil treatment (Table 19, symbol H); assay type: in vivo, barnyard grass (Echinochloa crus-galli)
# Method in brief: as §1
# redroot pigweed [19] = experiment: Test Example 5: herbicidal effect by foliage application, plastic box (Table 20, symbol N); assay type: in vivo, redroot pigweed (Amaranthus retroflexus); details: foliage application, 320 g/ha, evaluated three weeks after application
# Method in brief: as §2
# chickweed [20] = experiment: Test Example 4: herbicidal effect by soil treatment (Table 19, symbol P); assay type: in vivo, common chickweed (Stellaria media)
# Method in brief: as §1
# southern crabgrass [21] = experiment: Test Example 4: herbicidal effect by soil treatment (Table 19, symbol F); assay type: in vivo, southern crabgrass (Digitaria ciliaris)
# Method in brief: as §1
# blackgrass [22] = experiment: Test Example 5: herbicidal effect by foliage application, plastic box (Table 20, symbol J); assay type: in vivo, blackgrass (Alopecurus myosuroides); details: foliage application, 320 g/ha, evaluated three weeks after application
# Method in brief: as §2
# late watergrass = experiment: Test Example 2: herbicidal activity, application during weed generation under submerged conditions (Table 17, symbol A); assay type: in vivo, late watergrass (Echinochloa oryzicola); details: AAH 320 g/ha; application during weed generation, submerged conditions
# Method in brief: as §4
# velvetleaf [23] = experiment: Test Example 4: herbicidal effect by soil treatment (Table 19, symbol M); assay type: in vivo, velvetleaf (Abutilon theophrasti)
# Method in brief: as §1
# wild oat [24] = experiment: Test Example 5: herbicidal effect by foliage application, plastic box (Table 20, symbol I); assay type: in vivo, wild oat (Avena fatua); details: foliage application, 320 g/ha, evaluated three weeks after application
# Method in brief: as §2
# southern crabgrass [25] = experiment: Test Example 5: herbicidal effect by foliage application, plastic box (Table 20, symbol F); assay type: in vivo, southern crabgrass (Digitaria ciliaris); details: foliage application, 320 g/ha, evaluated three weeks after application
# Method in brief: as §2
# [26] = amount of applied herbicide 320 g/ha
structure (smiles),measurement,setting,value
COc1ccc(-c2sc3ccc(Cl)cc3c2-c2c(O)c(C)nn(C)c2=O)cc1F [2-117],"I: wild oat, herbicidal effect rating",wild oat [1]; [26],0 (Herbicidal rate of 5% or less (almost no effect))
same,herbicidal effect on G: green foxtail,green foxtail [2],0 (Herbicidal rate of 5% or less (almost no effect))
same,herbicidal effect on E: rice flat sedge,rice flat sedge; [26],5 (Herbicidal rate of 90% or more (almost completely withered))
same,herbicidal effect on M: velvetleaf,velvetleaf [3],4 (Herbicidal rate of 70% or more and less than 90%)
same,herbicidal effect on L: windgrass,windgrass [4],0 (Herbicidal rate of 5% or less (almost no effect))
same,herbicidal effect on K: Italian ryegrass,Italian ryegrass [5],0 (Herbicidal rate of 5% or less (almost no effect))
same,herbicidal effect on D: Chinese sprangletop,Chinese sprangletop; [26],3 (Herbicidal rate of 40% or more and less than 70%)
same,"herbicidal effect rating, B: Japanese bulrush",Japanese bulrush,2 (Herbicidal rate of 20% or more and less than 40%)
same,herbicidal effect on R: persian speedwell,persian speedwell [6],5 (Herbicidal rate of 90% or more (almost completely withered))
same,"J: blackgrass, herbicidal effect rating",blackgrass [7]; [26],0 (Herbicidal rate of 5% or less (almost no effect))
same,herbicidal effect on O: lambsquarters,lambsquarters [8],3 (Herbicidal rate of 40% or more and less than 70%)
same,"O: lambsquarters, herbicidal effect rating",lambsquarters [9]; [26],3 (Herbicidal rate of 40% or more and less than 70%)
same,"G: green foxtail, herbicidal effect rating",green foxtail [10]; [26],0 (Herbicidal rate of 5% or less (almost no effect))
same,herbicidal effect on H: barnyard grass,barnyard grass [11],0 (Herbicidal rate of 5% or less (almost no effect))
same,"N: redroot pigweed, herbicidal effect rating",redroot pigweed [12]; [26],1 (Herbicidal rate of 5% or more and less than 20%)
same,"R: persian speedwell, herbicidal effect rating",persian speedwell [13]; [26],1 (Herbicidal rate of 5% or more and less than 20%)
same,herbicidal effect on P: chickweed,chickweed [14],5 (Herbicidal rate of 90% or more (almost completely withered))
same,"herbicidal effect rating, C: oval-leafed pondweed",oval-leafed pondweed,3 (Herbicidal rate of 40% or more and less than 70%)
same,herbicidal effect on H: barnyard grass,barnyard grass [15]; [26],3 (Herbicidal rate of 40% or more and less than 70%)
same,"K: Italian ryegrass, herbicidal effect rating",Italian ryegrass [16]; [26],0 (Herbicidal rate of 5% or less (almost no effect))
same,"L: windgrass, herbicidal effect rating",windgrass [17]; [26],0 (Herbicidal rate of 5% or less (almost no effect))
same,"H: barnyard grass, herbicidal effect rating",barnyard grass [18]; [26],0 (Herbicidal rate of 5% or less (almost no effect))
same,herbicidal effect on N: redroot pigweed,redroot pigweed [19],3 (Herbicidal rate of 40% or more and less than 70%)
same,"P: chickweed, herbicidal effect rating",chickweed [20]; [26],0 (Herbicidal rate of 5% or less (almost no effect))
same,"F: southern crabgrass, herbicidal effect rating",southern crabgrass [21]; [26],0 (Herbicidal rate of 5% or less (almost no effect))
same,herbicidal effect on J: blackgrass,blackgrass [22],0 (Herbicidal rate of 5% or less (almost no effect))
same,"herbicidal effect rating, A: late watergrass",late watergrass,0 (Herbicidal rate of 5% or less (almost no effect))
same,"M: velvetleaf, herbicidal effect rating",velvetleaf [23]; [26],0 (Herbicidal rate of 5% or less (almost no effect))
same,herbicidal effect on I: wild oat,wild oat [24],0 (Herbicidal rate of 5% or less (almost no effect))
same,herbicidal effect on F: southern crabgrass,southern crabgrass [25],0 (Herbicidal rate of 5% or less (almost no effect))
Cc1nn(C)c(=O)c(-c2c(-c3ccc(OC4CCOC4)cc3)sc3ccc(F)cc23)c1O (stereo not drawn) [2-074],"herbicidal effect rating, I: wild oat",wild oat [1]; 320 g/ha,0 (Herbicidal rate of 5% or less (almost no effect))
same,herbicidal effect on G: green foxtail,green foxtail [2],5 (Herbicidal rate of 90% or more (almost completely withered))
same,"herbicidal effect on E (rice flat sedge), rating 0-5",rice flat sedge; 320 g/ha,5 (Herbicidal rate of 90% or more (almost completely withered))
same,herbicidal effect on M: velvetleaf,velvetleaf [3],5 (Herbicidal rate of 90% or more (almost completely withered))
same,herbicidal effect on L: windgrass,windgrass [4],5 (Herbicidal rate of 90% or more (almost completely withered))
same,herbicidal effect on K: Italian ryegrass,Italian ryegrass [5],4 (Herbicidal rate of 70% or more and less than 90%)
same,"herbicidal effect on D (Chinese sprangletop), rating 0-5",Chinese sprangletop; 320 g/ha,5 (Herbicidal rate of 90% or more (almost completely withered))
same,"herbicidal effect rating, B: Japanese bulrush",Japanese bulrush,3 (Herbicidal rate of 40% or more and less than 70%)
same,herbicidal effect on R: persian speedwell,persian speedwell [6],5 (Herbicidal rate of 90% or more (almost completely withered))
same,"herbicidal effect rating, J: blackgrass",blackgrass [7]; 320 g/ha,1 (Herbicidal rate of 5% or more and less than 20%)
same,herbicidal effect on O: lambsquarters,lambsquarters [8],5 (Herbicidal rate of 90% or more (almost completely withered))
same,"herbicidal effect rating, O: lambsquarters",lambsquarters [9]; 320 g/ha,5 (Herbicidal rate of 90% or more (almost completely withered))
same,"herbicidal effect rating, G: green foxtail",green foxtail [10]; 320 g/ha,5 (Herbicidal rate of 90% or more (almost completely withered))
same,herbicidal effect on H: barnyard grass,barnyard grass [11],5 (Herbicidal rate of 90% or more (almost completely withered))
same,"herbicidal effect rating, N: redroot pigweed",redroot pigweed [12]; 320 g/ha,5 (Herbicidal rate of 90% or more (almost completely withered))
same,"herbicidal effect rating, R: persian speedwell",persian speedwell [13]; 320 g/ha,5 (Herbicidal rate of 90% or more (almost completely withered))
same,herbicidal effect on P: chickweed,chickweed [14],5 (Herbicidal rate of 90% or more (almost completely withered))
same,"herbicidal effect rating, C: oval-leafed pondweed",oval-leafed pondweed,0 (Herbicidal rate of 5% or less (almost no effect))
same,"herbicidal effect on H (barnyard grass), rating 0-5",barnyard grass [15]; 320 g/ha,5 (Herbicidal rate of 90% or more (almost completely withered))
same,"herbicidal effect rating, K: Italian ryegrass",Italian ryegrass [16]; 320 g/ha,3 (Herbicidal rate of 40% or more and less than 70%)
same,"herbicidal effect rating, L: windgrass",windgrass [17]; 320 g/ha,3 (Herbicidal rate of 40% or more and less than 70%)
same,"herbicidal effect rating, H: barnyard grass",barnyard grass [18]; 320 g/ha,5 (Herbicidal rate of 90% or more (almost completely withered))
same,herbicidal effect on N: redroot pigweed,redroot pigweed [19],5 (Herbicidal rate of 90% or more (almost completely withered))
same,"herbicidal effect rating, P: chickweed",chickweed [20]; 320 g/ha,3 (Herbicidal rate of 40% or more and less than 70%)
same,"herbicidal effect rating, F: southern crabgrass",southern crabgrass [21]; 320 g/ha,5 (Herbicidal rate of 90% or more (almost completely withered))
same,herbicidal effect on J: blackgrass,blackgrass [22],5 (Herbicidal rate of 90% or more (almost completely withered))
same,"herbicidal effect rating, A: late watergrass",late watergrass,0 (Herbicidal rate of 5% or less (almost no effect))
same,"herbicidal effect rating, M: velvetleaf",velvetleaf [23]; 320 g/ha,3 (Herbicidal rate of 40% or more and less than 70%)
same,herbicidal effect on I: wild oat,wild oat [24],4 (Herbicidal rate of 70% or more and less than 90%)
same,herbicidal effect on F: southern crabgrass,southern crabgrass [25],5 (Herbicidal rate of 90% or more (almost completely withered))
